Measured values published in patent US10336748B2, “Methyoxy-substituted pyrrolopyridine modulators of RORC2 and methods of use thereof” (Pfizer Inc., priority 2015, dated 2019).
pIC50: −log10 of the molar value.

Columns and labels:
[1] = molecular target: T1, RORC2 ligand binding domain (6-His-RORC2 LBD) (Homo sapiens, UniProt P51449); experiment: Co-activator recruitment by TR-FRET; assay type: biochemical; conditions: 6.3 nM RORC2 LBD, 200 nM SRC1-2 coactivator peptide, 3 hr room temperature
T1 construct: made in house; host or cells: E. coli
T1 sequence (P51449 269-508 limits assumed): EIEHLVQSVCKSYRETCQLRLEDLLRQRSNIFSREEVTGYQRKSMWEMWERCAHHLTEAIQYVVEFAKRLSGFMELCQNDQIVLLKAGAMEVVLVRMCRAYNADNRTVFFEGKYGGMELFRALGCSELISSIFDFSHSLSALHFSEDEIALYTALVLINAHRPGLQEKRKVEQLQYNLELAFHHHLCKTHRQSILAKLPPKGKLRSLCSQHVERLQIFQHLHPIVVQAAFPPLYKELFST
Description: The activity of compound of the invention can be determined by a co-activator recruitment by TR-FRET (time-resolved fluorescence resonance energy transfer) assay. In general, the assay is based on the interaction between N-terminally Six-Histidine-tagged-RORC2 ligand binding domain (6-His-RORC2 LBD), expressed in E. coli and purified by affinity chromatography, and biotin-coactivator peptide SRC1-2 (biotin-aminohexanoic acid-[…]-NH2; SEQ ID NO: 1) containing the LXXLL consensus domain which is responsible for receptor binding. This interaction is detected by addition of Europium labeled-anti-His antibody (Ex. 337 nm, Em. 620 nm, which binds to 6His) and Streptavidin-APC (Ex. 620 nm, Em. 665 nm, which binds to biotin). When receptor and coactivator are bound to each other, upon shining light at 337 nm on the sample, the Europium emits fluorescence that excites APC due to close proximity (FRET) and this signal is measured at 665 nm. Due to the long lasting fluorescence emission of Europium, the non-specific, short-lived fluorescence is time-resolved (TR) from the fluorescence of interest. Inhibitors of the interaction of receptor and coactivator peptide are detected by a decrease in TR-FRET signal.
Specifically, in one embodiment the aforementioned assay was performed as outlined below. The assay was carried out in black polystyrene. 384-well plates in a total assay volume of 50.5 μL. The assay buffer contained 50 mM TRIS-HCL pH 7.5, 1 mM NaCl, 2 mM MgCl2, 0.5 mg/mL bovine serum albumin, and 5 mM dithiothreitol. The final concentration of reagents was 6.3 nM RORC2 LBD, 200 nM SRC1-2, 50 nM streptavidin APC, 1 nM Europium-labeled anti-His antibody, and varying concentrations of compounds such that final concentration of DMSO is 1% (v/v). The assay steps were: (1) dispensing […] compound at 100× final concentration in DMSO (test wells) or DMSO only (control wells for no inhibition); and (2) dispensing 50 μL mixture of the other assay components including receptor (test wells) or excluding receptor (control wells for maximal inhibition).
Assay mixtures were incubated are room temperature for 3 hr and read in EnVision 2100 Multilabel Reader (PerkinElmer Life Sciences) at Excitation Filter 320, Emission Europium Filter 615, Emission APC Filter 665, Dichroic Mirror D400/D630.
TR-FRET signal was determined by calculating the ratio of 665 nm by 615 nm and […] values of compounds of the invention (Table 1) were determined by the non-linear regression analysis of dose response curves.

[2] = tested on: human Th17 cells; experiment: IL-17 production from human Th17 cells; assay type: cell-based; conditions: 144 h; IL-17A in supernatant by ELISA (MSD) after 6 days, human CD4+ T cells, anti-CD3 + anti-CD28 + cytokine cocktail
Experimental: The activity of compound of the invention can be also be determined by an IL-17 production from human Th17 cells assay. In general, this assay measures blockade of IL-17 production, the signature cytokine of T helper 17 (Th17) cells, by compounds. Purified human CD4+ T cells are stimulated with anti-CD3+anti-CD28 and incubated with a cytokine cocktail that induce their differentiation into Th17 in the absence or presence of various concentrations of compound. After 6 days, IL-17A concentration is measured in the cell culture supernatant with an ELISA kit (MSD).
Preparation of human CD4+ T cells. CD4+ T cells were purified from buffy coats from healthy donors (obtained from Massachusetts General Hospital) by negative selection the following procedure: Mixing 25 mL of blood with 1 mL of Rosette Sep CD4+ T cell enrichment cocktail (StemCell Technologies) followed by application of a layer of 14 mL Ficoll Paque Plus (Amersham GE Healthcare) and subsequent centrifugation at 1200 g for 20 min at room temperature. The Ficoll layer was then harvested and washed with phosphate saline buffer containing 2% (v/v) fetal bovine serum and cells were resuspended with RPMI medium containing 10% (v/v) fetal bovine serum and 10% (v/v) DMSO, frozen and kept in LN2 until used.
On the first day of the assay, a vial containing 10^7 CD4+ T cells is thawed rapidly in 37° C. water bath, immediately transferred into 20 mL X-Vivo 15 medium (Lonza), is spun for 6 min at 300×g, the supernatant is discarded, and the resulting pellet is re-suspended at 10^6 cells/mL in […] fresh X-Vivo 15 medium, followed by storage overnight in a tissue culture vessel in a humidified chamber at 37° C. and 5% CO2. Serial dilutions of compounds of the invention are prepared at 10× final concentration in X-Vivo15 medium containing 3% (v/v) DMSO.
On the second day of the assay, a 384-well tissue culture plate was coated with 10 μg/mL anti-hCD3 (eBioscience) at 50 μL/well. After 2 hr at 37° C., the supernatant is discarded and the coated plates are kept in a sterile tissue culture hood.
Cytokine plus anti-CD28 cocktail is prepared by mixing 25 ng/mL hIL-6 (Peprotech), 5 ng/mL hTGFbeta1 (Peprotech), 12.5 ng/mL IL-1beta (Peprotech), 25 ng/mL hIL-21, 25 ng/mL hIL-23 (R&D Systems), and 1 ug/mL anti-hCD28 (eBioscience) in X-Vivo 15 medium. The cytokine plus anti-CD28 cocktail with CD4+ cells is prepared such that the cocktail is diluted 10-fold and cell density is 0.22×10^6/mL. The mixture is incubated 1 hr at 37° C.
90 μL (20,000 cells) dispensed per well in the anti-hCD3 coated plate prepared as noted above.
10 μL 10× compound is added per well (final DMSO=0.3%) from the compound plate that was previously prepared, followed by 6 days of incubation in a tissue culture vessel in a humidified chamber at 37° C. and 5% CO2.
On day six of the assay, production of IL-17A in 10 μL of the supernatant is determined by sandwich ELISA using 384w hIL17 MSD plates following the manufacturer's protocol. Measurement is carried out in a Sector Imager 6000 by the same manufacturer. Signal units from the instrument are converted to pg/mL using a calibration curve with known amounts of IL-17A. IC50 values of test compounds (Table 2) are determined by the non-linear regression analysis of dose response curves.

pIC50 [1]	pIC50 [2]	Structure (SMILES)
8.16	7.96	COc1ccc(C(=O)Nc2cnc3c(c(C4CCN(C(=O)[C@H](C)C(C)(C)C)CC4)cn3C)c2OC)cc1C#N [Example 4, (R)-3-cyano-4-methoxy-N-(4-methoxy-1-methyl-3-(1-(2,3,3-trimethylbutanoyl)piperidin-4-yl)-1H-pyrrolo[2,3-b]pyridin-5-yl)benzamide]
7.25	7.11	COc1cc(C#N)cc(C(=O)Nc2cnc3c(c(C4CCN(C(=O)C[C@@H](O)C(F)(F)F)CC4)cn3C)c2OC)c1 [Example 9, (R)-3-cyano-5-methoxy-N-(4-methoxy-1-methyl-3-(1-(4,4,4-trifluoro-3-hydroxybutanoyl)piperidin-4-yl)-1H-pyrrolo[2,3-b]pyridin-5-yl)benzamide]
7.41	7.75	COc1ccc(C(=O)Nc2cnc3c(c(C4CCN(C(=O)C(C)C)CC4)cn3C)c2OC)cc1C#N [Example 2, 3-cyano-N-(3-(1-isobutyrylpiperidin-4-yl)-4-methoxy-1-methyl-1H-pyrrolo[2,3-b]pyridin-5-yl)-4-methoxybenzamide]
7.53	6.98	COc1c(NC(=O)c2ccc(F)c(C#N)c2)cnc2c1c(C1CCN(C(=O)C3CCCC3)CC1)cn2C [Example 10, 3-cyano-N-(3-(1-(cyclopentanecarbonyl)piperidin-4-yl)-4-methoxy-1-methyl-1H-pyrrolo[2,3-b]pyridin-5-yl)-4-fluorobenzamide]
8.24	8.14	COc1c(NC(=O)c2cccc(C#N)c2)cnc2c1c([C@@H]1CCN(C(=O)C3CCCC3)C(C)(C)C1)cn2C [Example 31, (R)-3-cyano-N-(3-(1-(cyclopentanecarbonyl)-2,2-dimethylpiperidin-4-yl)-4-methoxy-1-methyl-1H-pyrrolo[2,3-b]pyridin-5-yl)benzamide]
